Calls of active or inactive are those of the source. The calls are words filed in the database; no cut-off is given here.
Experiments:
[1] = tested on: Fibroblast; assay: Antiaging activity in human fibroblasts assessed as reduction in UVB-induced phospho-H2AX protein level after 6 days by confocal microscopy analysis; assay type: functional, cell-based
[2] = tested on: Fibroblast; assay: Antiaging activity in human fibroblasts assessed as reduction of UVB-induced nucleus deformation after 6 days by confocal microscopy analysis; assay type: functional, cell-based
[3] = tested on: Fibroblast; assay: Antiaging activity in human fibroblasts assessed as reduction in UVB-induced phospho-H2AX protein level after 6 days by Western blotting method; assay type: functional, cell-based
[4] = Cytotoxicity against human UVB-induced fibroblasts assessed as cell viability; assay type: cell-based; details: fibroblast
[5] = tested on: Fibroblast; assay: Antiaging activity in human fibroblasts assessed as reduction in UVB-induced lamin A protein level after 6 days by Western blot method; assay type: functional, cell-based
[6] = tested on: Fibroblast; assay: Antiaging activity in fibroblasts isolated from human assessed as reduction in UVB-induced phospho-H2AX protein level after 6 days by Western blotting method; assay type: functional, cell-based

In the case of `O=c1cc(-c2ccc(O)c(-c3c(O)cc(O)c4c(=O)cc(-c5ccc(O)cc5)oc34)c2)oc2cc(O)cc(O)c12` [AMENTOFLAVONE], the Activity [1] is reported as “Active”, the Activity [2] is reported as “Active” and the Activity [3] is reported as “Dose-dependent effect”. For the same molecule, the Activity [4] was “Non-toxic”, the Activity [5] was “Dose-dependent effect” and the Activity [6] was “Dose-dependent effect”.

— ChEMBL document CHEMBL1909499, “Protective effects of amentoflavone on Lamin A-dependent UVB-induced nuclear aberration in normal human fibroblasts” (Bioorg Med Chem Lett, 2011)
